# Data as given in patent US6528275B1, “Substrates and inhibitors of proteolytic enzymes” (Peptide Therapeutics Limited, priority 1996, dated 2003).
# Non-standard residues stand in square brackets, D forms with d. Residues, ends and D or L forms follow the SMILES beside them. *: point of attachment. Tyr(3-NO2) = N[C@@H](Cc1ccc(O)c([N+](=O)[O-])c1)C(=O)O; Benzoyl(2-COOH) = O=C(O)c1ccccc1C(=O)*; 3Pal = N[C@@H](Cc1cccnc1)C(=O)O; Tic = O=C(O)[C@@H]1Cc2ccccc2CN1; Cha = N[C@@H](CC1CCCCC1)C(=O)O; hLeu = CC(C)CC[C@H](N)C(=O)O; Nle = CCCC[C@H](N)C(=O)O; 2Abz = Nc1ccccc1C(=O)O; Piv = CC(C)(C)C(=O)*; Bz = O=C(c1ccccc1)*; Ahx = NCCCCCC(=O)O
# Biological target: T1, Der pI (Dermatophagoides pteronyssinus, UniProt P08176)
# T1 construct: tissue SmithKline-Beecham, U.K (crude mite extract); host or cells: crude house dust mite extract
# T1 sequence (P08176 99-320): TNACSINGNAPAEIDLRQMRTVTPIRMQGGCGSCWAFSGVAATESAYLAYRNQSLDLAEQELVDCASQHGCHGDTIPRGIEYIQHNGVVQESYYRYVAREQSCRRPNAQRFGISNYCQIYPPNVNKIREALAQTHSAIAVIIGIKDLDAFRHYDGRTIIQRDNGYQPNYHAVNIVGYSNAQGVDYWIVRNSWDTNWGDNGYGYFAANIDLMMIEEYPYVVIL
# Assay: Der pI substrate assay with FRET peptides (fluorescence, Km, kcat/Km)
# Format: biochemical, house dust mite
# Details: purified Der pI; peptides SEQ ID Nos. 1-76; read-out: Measured Km
# Protocol: (§1) Using the general techniques described above, the following compounds were prepared and assayed as potential substrates against Der pI purified as described above.
# (§2) Each mixture of 20 compounds in the libraries of the apparatus described herein was screened at a concentration of 1.0 μM per compound in an assay against the cysteinyl protease Der pI.
# (§3) Plate assays were carried out in 96 well plate format, using 0.1 ug of Der pI per 100 μL assay volume in each well and using 20 μM of the substrate. All assays were performed in Assay Buffer (AB; 50 mM potassium phosphate, pH 8.25 containing 1 mM ethylenediaminetetraacetic acid (EDTA) and 1 mM dithiothreitol (DTT). The Der pI enzyme is pre-activated by addition of DTT and this in incubated at room temperature for 5 min. prior to initiation of the assay. As an example for the screening methodology, each well contains a 5 μL of a 20 μM solution of the test compound in DMSO, 10 μL of a 200 μM aqueous solution of the substrate, 2, and 85 μL of Der pI in AB is added to initiate the reaction. Enzyme activity is monitored by fluorescence using 320 nm for excitation and 420 nm for the emission wavelengths using a Labsystems Fluroskan Ascent machine. Kinetic measurements were carried out using a Hitachi F-4500 Fluorescence Spectrophotometer.
row,Km,Molecule
1,> 10 µM,CC(C)CC[C@H](NC(=O)[C@H](C)NC(=O)[C@H](Cc1cccnc1)NC(=O)c1ccccc1N)C(=O)N[C@@H](CO)C(=O)N[C@@H](Cc1ccc(O)c([N+](=O)[O-])c1)C(=O)N[C@@H](CC(=O)O)C(N)=O [Abz-3pyr-Ala-hLeu-Ser-Tyr(NO2)-Asp-NH2] (H-[2Abz][3Pal]A[hLeu]S[Tyr(3-NO2)]D-NH2)
2,> 15 µM,CC(C)CC[C@H](NC(=O)[C@H](C)NC(=O)[C@H](CCCCN)NC(=O)c1ccccc1N)C(=O)N[C@@H](CO)C(=O)N[C@@H](Cc1ccc(O)c([N+](=O)[O-])c1)C(=O)N[C@@H](CC(=O)O)C(N)=O [Abz-Lys-Ala-hLeu-Ser-Tyr(NO2)-Asp-NH2] (H-[2Abz]KA[hLeu]S[Tyr(3-NO2)]D-NH2)
3,> 20 µM,CC(C)[C@H](NC(=O)c1ccccc1N)C(=O)N[C@@H](C)C(=O)N[C@@H](Cc1c[nH]cn1)C(=O)N[C@@H](CO)C(=O)N[C@@H](Cc1ccc(O)c([N+](=O)[O-])c1)C(=O)N[C@@H](CC(=O)O)C(N)=O [Abz-Val-Ala-His-Ser-Tyr(NO2)-Asp-NH2] (H-[2Abz]VAHS[Tyr(3-NO2)]D-NH2)

row,Molecule,Km
1,Abz-Bip-Ala-hLeu-Abu-Tyr(NO2)-Asp-NH2,1.7 µM

# Biological target: T1, Der pI
# Assay: as above
# Format: biochemical, house dust mite
# Design: key: NS-Not Substrate: Not hydrolysed by Der pI; NM-Substrate but not measured: Substrate for Der pI but not measured
# Details: purified Der pI; peptides SEQ ID Nos. 77-85
# Protocol: as §1, §2, §3
row,Molecule,substrate or not substrate for Der pI (symbols in Measured Km)
1,Abz-Cmpi-Nle-Ser-Tyr(NO2)-Asp-NH2,NS
2,Abz-Deg-Ala-Nle-Ser-Tyr(NO2)-Asp-NH2,NS
3,Abz-Val-(NMe)Ala-Nle-Ser-Tyr(NO2)-Asp-NH2,NS
4,Abz-Val-Aib-Nle-Ser-Tyr(NO2)-Asp-NH2,NS
5,Abz-Val-Ala-(NMe)Nle-Ser-Tyr(NO2)-Asp-NH2,NS
6,Abz-Val-Ala-Aib-Ser-Tyr(NO2)-Asp-NH2,NS
7,Abz-p.Aba-Nle-Ser-Tyr(NO2)-Asp-NH2,NS
8,Bz-Val-Ala-Statine-Ser-eAha-NH2,NS
9,nBu-D.Ser-D.Nle-D.Ala-D.Val-p.Aba-NH2,NS

# Biological target: T1, Der pI
# Assay: as above
# Format: biochemical, house dust mite
# Design: key: NS indicates that the peptide was not hydrolysed by Der pI.; NM indicated that the peptide was a substrate for Der pI, but the Km was not measured.; NM^a indicates that the peptide was a substrate for Der pI, and its cleavage was followed by HPLC-MS showing hydrolysis to occur between-Nle-Ser-
# Details: purified Der pI; peptides SEQ ID Nos. 1-76
# Protocol: as §1, §2, §3
row,Molecule,substrate or not substrate for Der pI (symbols in Measured Km)
1,CCCC[C@H](NC(=O)[C@H](C)NC(=O)[C@@H](NC(=O)c1ccccc1N)C(C)C)C(=O)N[C@@H](CO)C(=O)N[C@@H](Cc1ccc(O)cc1)C(=O)N[C@@H](CC(=O)O)C(N)=O [Abz-Val-Ala-Nle-Ser-Tyr-Asp-NH2] (H-[2Abz]VA[Nle]SYD-NH2),NM
2,CCCC[C@H](NC(=O)[C@H](C)NC(=O)[C@@H](NC(=O)c1ccccc1N)C(C)C)C(=O)N[C@@H](CO)C(=O)NCCCCCC(=O)N[C@@H](CC(=O)O)C(N)=O [Abz-Val-Ala-Nle-Ser-eAHA-Asp-NH2] (H-[2Abz]VA[Nle]S[Ahx]D-NH2),NM
3,CC(C)CC[C@H](NC(=O)[C@H](CC1CCCCC1)NC(=O)[C@@H](NC(=O)c1ccccc1N)C(C)C)C(=O)N[C@@H](CO)C(=O)N[C@@H](Cc1ccc(O)c([N+](=O)[O-])c1)C(=O)N[C@@H](CC(=O)O)C(N)=O [Abz-Val-Cha-hLeu-Ser-Tyr(NO2)-Asp-NH2] (H-[2Abz]V[Cha][hLeu]S[Tyr(3-NO2)]D-NH2),NS
4,CC(C)CC[C@H](NC(=O)[C@@H](C)NC(=O)[C@@H](NC(=O)c1ccccc1N)C(C)C)C(=O)N[C@@H](CO)C(=O)N[C@@H](Cc1ccc(O)c([N+](=O)[O-])c1)C(=O)N[C@@H](CC(=O)O)C(N)=O [Abz-Val-DAla-hLeu-Ser-Tyr(NO2)-Asp-NH2] (H-[2Abz]V[dA][hLeu]S[Tyr(3-NO2)]D-NH2),NS
5,CC(C)CC[C@H](NC(=O)[C@@H](CCCCN)NC(=O)[C@@H](NC(=O)c1ccccc1N)C(C)C)C(=O)N[C@@H](CO)C(=O)N[C@@H](Cc1ccc(O)c([N+](=O)[O-])c1)C(=O)N[C@@H](CC(=O)O)C(N)=O [Abz-Val-DLys-hLeu-Ser-Tyr(NO2)-Asp-NH2] (H-[2Abz]V[dK][hLeu]S[Tyr(3-NO2)]D-NH2),NS
6,CC(C)CC[C@H](NC(=O)[C@@H]1Cc2ccccc2CN1C(=O)[C@@H](NC(=O)c1ccccc1N)C(C)C)C(=O)N[C@@H](CO)C(=O)N[C@@H](Cc1ccc(O)c([N+](=O)[O-])c1)C(=O)N[C@@H](CC(=O)O)C(N)=O [Abz-Val-Tic-hLeu-Ser-Tyr(NO2)-Asp-NH2] (H-[2Abz]V[Tic][hLeu]S[Tyr(3-NO2)]D-NH2),NS
7,CCCC[C@H](NC(=O)[C@H](C)NC(=O)[C@@H](NC(C)=O)C(C)C)C(=O)N[C@@H](CO)C(=O)N[C@@H](Cc1ccc(O)c([N+](=O)[O-])c1)C(=O)N[C@@H](CC(=O)O)C(N)=O [Ac-Val-Ala-Nle-Ser-Tyr(NO2)-Asp-NH2] (Ac-VA[Nle]S[Tyr(3-NO2)]D-NH2),NS
8,CCCC[C@H](NC(=O)[C@H](C)NC(=O)[C@@H](NC(C)=O)C(C)C)C(=O)N[C@@H](CO)C(=O)N[C@@H](Cc1ccc(O)c([N+](=O)[O-])c1)C(N)=O [Ac-Val-Ala-Nle-Ser-Tyr(NO2)-NH2] (Ac-VA[Nle]S[Tyr(3-NO2)]-NH2),NS
9,CCCC[C@H](NC(=O)[C@H](C)NC(=O)[C@@H](NC(=O)c1ccccc1C(=O)O)C(C)C)C(=O)N[C@@H](CO)C(=O)N[C@@H](Cc1ccc(O)c([N+](=O)[O-])c1)C(N)=O [Bz(2-carboxy)-Val-Ala-Nle-Ser-Tyr(NO2)-NH2] ({Benzoyl(2-COOH)}-VA[Nle]S[Tyr(3-NO2)]-NH2),NM^a
10,CCCC[C@H](NC(=O)[C@H](C)NC(=O)[C@@H](NC(=O)c1ccccc1)C(C)C)C(=O)N[C@@H](CO)C(=O)N[C@@H](Cc1ccc(O)c([N+](=O)[O-])c1)C(N)=O [Bz-Val-Ala-Nle-Ser-Tyr(NO2)-NH2] (Bz-VA[Nle]S[Tyr(3-NO2)]-NH2),NM^a
11,CCCC[C@H](NC(=O)[C@H](C)N)C(=O)N[C@@H](CO)C(=O)N[C@@H](Cc1ccc(O)c([N+](=O)[O-])c1)C(=O)N[C@@H](CC(=O)O)C(N)=O [H-Ala-Nle-Ser-Tyr(NO2)-Asp-NH2] (H-A[Nle]S[Tyr(3-NO2)]D-NH2),NS
12,CCCC[C@H](NC(=O)[C@H](C)NC(=O)[C@@H](N)C(C)C)C(=O)N[C@@H](CO)C(=O)N[C@@H](Cc1ccc(O)c([N+](=O)[O-])c1)C(N)=O [H-Val-Ala-Nle-Ser-Tyr(NO2)-NH2] (H-VA[Nle]S[Tyr(3-NO2)]-NH2),NS
13,CCCC[C@H](NC(=O)[C@H](C)NC(=O)[C@@H](N)C(C)C)C(=O)N[C@@H](CO)C(=O)N[C@@H](Cc1ccc(O)c([N+](=O)[O-])c1)C(=O)N[C@@H](CC(=O)O)C(N)=O [H-Val-Ala-Nle-Ser-TyrNO2-Asp-NH2] (H-VA[Nle]S[Tyr(3-NO2)]D-NH2),NS
14,CCCC[C@H](NC(=O)[C@H](C)NC(=O)[C@@H](NC(=O)C(C)(C)C)C(C)C)C(=O)N[C@@H](CO)C(=O)N[C@@H](Cc1ccc(O)c([N+](=O)[O-])c1)C(N)=O [Piv-Val-Ala-Nle-Ser-Tyr(NO2)-NH2] (Piv-VA[Nle]S[Tyr(3-NO2)]-NH2),NM^a
15,Abz-2.Naph-Val-Ala-Nle-Ser-Tyr(NO2)-Asp-NH2,NM
16,Abz-3.Pyr-Val-Ala-Nle-Ser-Tyr(NO2)-Asp-NH2,NM
17,Chex-Val-Ala-Nle-Ser-Tyr(NO2)-NH2,NM^a
18,n-Bu-Val-Ala-Nle-Ser-Tyr(NO2)-NH2,NM^a
